Converted amounts (≈) assume the structure as drawn.
Tests used:
[1] = tested on: Aspergillus fumigatus AF293; experiment: Microdilution assay (CLSI M27-A3/M38-A2), MIC and MFC; format: cell-based
Description: (§1) Cryptococcus and Candida species were cultured in yeast extract-peptone-dextrose (YPD) medium (containing 1% yeast extract, 2% peptone, 2% glucose, and optionally 2% agar for preparation of an agar plate). Aspergillus, Fusarium, and Trichophyton species were cultured on potato dextrose agar (PDA) plate (containing 2% potato infusion, […], and 1.5% agar). A microdilution assay was performed to determine minimum inhibitory concentration (MIC), minimum fungicidal concentration (MFC), and fractional inhibitory concentration (FIC) index (FICI) using RPMI 1640 medium buffered with MOPS. Minimal medium (containing 15 mM glucose, 10 mM magnesium sulfate, 29.4 mM potassium dihydrogen phosphate, 13 mM glycine, and 3 μM thiamine hydrochloride; pH 5.5) was used for capsule size assay and melanization assay.
(§2) To investigate the inhibitory effects of eltrombopag on the growth of fungi, microdilution assays (based on the CLSI standards M27-A3 and M38-A2) were performed with multiple pathogenic yeasts and filamentous fungi including Cryptococcus, Candida, Aspergillus, Fusarium, and Trichophyton (TABLE 1). Briefly, yeast or filamentous fungi strains at a final concentration of about 10^3 cfu/mL were inoculated in RPMI 1640 medium containing two-fold serially diluted eltrombopag (started at 64 mg/L). In addition, fungal cultures without eltrombopag were used as positive controls, while media without fungal cells and eltrombopag were used as negative controls. The 96-well plates loaded with the aforementioned cultures were incubated at 35° C. for 48 hours, and the growth of cells in each well was examined to determine the minimum inhibitory concentration (MIC) of eltrombopag, which was the lowest drug concentration at which there was no visible cell growth. Thereafter, 3 μL of the fungal culture from each well of the 96-well plates was spotted onto eltrombopag-free YPD (for yeasts) or PDA (for filamentous fungi) agar plates, which were then incubated at 35° C. for 48 hours to examine colony formation Minimum fungicidal concentration (MFC) was determined to be the lowest drug concentration at which no colonies formed. The assays were performed in triplicate.

[2] = tested on: Candida albicans SC5314; experiment: as above; format: cell-based; settings: 35° C.
Description: as §1, §2

[3] = tested on: Candida glabrata CBS138; experiment: as above; format: cell-based; settings: Nakaseomyces glabratus, 35° C.
Description: as §1, §2

[4] = tested on: Candida krusei ATCC6258; experiment: as above; format: cell-based; settings: Pichia kudriavzevii, 35° C.
Description: as §1, §2

[5] = tested on: Candida lusitaniae ATCC42720; experiment: as above; format: cell-based; settings: Clavispora lusitaniae, 35° C.
Description: as §1, §2

[6] = tested on: Candida parapsilosis ATCC22019; experiment: as above; format: cell-based; settings: Lodderomyces parapsilosis, 35° C.
Description: as §1, §2

[7] = tested on: Candida tropicalis MYA3404; experiment: as above; format: cell-based; settings: 35° C.
Description: as §1, §2

[8] = tested on: Cryptococcus deuterogattii R265; experiment: as above; format: cell-based; settings: 35° C.
Description: as §1, §2

[9] = tested on: Cryptococcus deuterogattii R272; experiment: as above; format: cell-based; settings: 35° C.
Description: as §1, §2

[10] = tested on: Cryptococcus gattii WM276; experiment: as above; format: cell-based; settings: 35° C.
Description: as §1, §2

[11] = tested on: Cryptococcus neoformans 89-610; experiment: as above; format: cell-based; settings: 35° C.
Description: as §1, §2

[12] = tested on: Cryptococcus neoformans H99; experiment: as above; format: cell-based; settings: 35° C.
Description: as §1, §2

[13] = tested on: Cryptococcus neoformans T1; experiment: as above; format: cell-based
Description: as §1, §2

[14] = tested on: Fusarium solani Fungus III-6; experiment: as above; format: cell-based
Description: as §1, §2

[15] = tested on: Trichophyton rubrum MYA4438; experiment: as above; format: cell-based
Description: as §1, §2

[16] = tested on: most Candida species; experiment: Microdilution assay, summary for Candida species; format: cell-based
Description: as §1, with “Minimal medium (containing 15 mM glucose, 10 mM magnesium sulfate, 29.4 mM potassium dihydrogen phosphate, 13 mM glycine, and 3 μM thiamine hydrochloride; pH 5.5) was used for capsule size assay and melanization assay.” left out
To investigate the inhibitory effects of eltrombopag on the growth of fungi, microdilution assays (based on the CLSI standards M27-A3 and M38-A2) were performed with multiple pathogenic yeasts and filamentous fungi including Cryptococcus, Candida, Aspergillus, Fusarium, and Trichophyton (TABLE 1). […] Thereafter, 3 μL of the fungal culture from each well of the 96-well plates was spotted onto eltrombopag-free YPD (for yeasts) or PDA (for filamentous fungi) agar plates, which were then incubated at 35° C. for 48 hours to examine colony formation Minimum fungicidal concentration (MFC) was determined to be the lowest drug concentration at which no colonies formed. […]

[17] = tested on: C. deuterogattii R265; experiment: Capsule size assay (India ink); format: cell-based, Cryptococcus deuterogattii; settings: 0.06 mg/L, 37° C., 48 hours, versus no eltrombopag treatment
Description: as §1
Cryptococcus capsule, the structure attached to the outer surface of the cell wall and mainly composed of polysaccharides, can increase the resistance of Cryptococcus to host immune response (such as phagocytosis by macrophages) and harsh conditions (such as extreme acidity or alkalinity, high CO2 levels, or iron deprivation). To test whether eltrombopag affects capsule formation in Cryptococcus, C. neoformans H99 and C. deuterogattii R265 cells were cultured overnight in YPD media at 30° C. […] Statistical significance for the data sets was determined using a two-tailed t test.

[18] = tested on: C. neoformans H99; experiment: Melanization assay (L-DOPA); format: cell-based, Cryptococcus neoformans; settings: 0.03 mg/L (¼ MIC) or 0.06 mg/L (½ MIC); 1 mM L-DOPA, 30° C.
Description: as §1
Melanin protects Cryptococcus from toxic free radicals produced by the host defense system, and thus melanin production is important for the pathogenicity of Cryptococcus. To study whether eltrombopag has an effect on melanin production in Cryptococcus, 5×10^4 C. neoformans H99 cells were cultured in minimal medium (abbreviated as MM) with or without 1 mM L-DOPA in the presence or absence of eltrombopag. The flasks containing the cultures were wrapped in foil to prevent L-DOPA auto-polymerization. […]

CC1=NN(c2ccc(C)c(C)c2)C(=O)/C1=N\Nc1cccc(-c2cccc(C(=O)O)c2)c1O [eltrombopag]
antifungal activity [1]: no antifungal activity | MIC ([1]; Aspergillus fumigatus, AF293, 35° C., 48 hours): > 64 µg/mL | MFC ([1]; Aspergillus fumigatus, AF293, 35° C., 48 hours on drug-free agar): > 64 µg/mL | MIC ([2]; 48 hours): > 64 µg/mL | MFC ([2]; 48 hours on drug-free agar): > 64 µg/mL | MIC ([3]; CBS138, 48 h, 48 hours): ~0.25 µg/mL (≈ 0.565 µM) | MFC ([3]; CBS138, 48 hours on drug-free agar): > 64 µg/mL | MIC ([4]; 48 hours): 64 µg/mL (≈ 145 µM) | MFC ([4]; 48 hours on drug-free agar): > 64 µg/mL | MIC ([5]; 48 hours): 64 µg/mL (≈ 145 µM) | MFC ([5]; 48 hours on drug-free agar): > 64 µg/mL | MIC ([6]; 48 hours): 64 µg/mL (≈ 145 µM) | MFC ([6]; 48 hours on drug-free agar): > 64 µg/mL | MIC ([7]; 48 hours): 64 µg/mL (≈ 145 µM) | MFC ([7]; 48 hours on drug-free agar): > 64 µg/mL | MIC ([8]; 48 hours): 0.125 µg/mL (≈ 0.283 µM) | MFC ([8]; 48 hours on drug-free agar): > 64 µg/mL | MIC ([9]; 48 hours): 0.125 µg/mL (≈ 0.283 µM) | MFC ([9]; 48 hours on drug-free agar): > 64 µg/mL | MIC ([10]; 48 hours): 0.125 µg/mL (≈ 0.283 µM) | MFC ([10]; 48 hours on drug-free agar): > 64 µg/mL | MIC ([11]; Cryptococcus neoformans, 89610, 48 h, 48 hours, azole-resistant strain): 0.125 µg/mL (≈ 0.283 µM) | MFC ([11]; Cryptococcus neoformans, 89610, 48 hours on drug-free agar): > 64 µg/mL | MIC ([12]; 48 hours): 0.125 µg/mL (≈ 0.283 µM) | MFC ([12]; 48 hours on drug-free agar): > 64 µg/mL | MFC ([13]; T1, 35° C., 48 hours on drug-free agar): > 64 µg/mL | MIC ([13]; T1, 48 h, 35° C., 48 hours, azole-resistant strain): 0.125 µg/mL (≈ 0.283 µM) | antifungal activity [14]: no antifungal activity | MIC ([14]; Fusarium solani, 35° C., 48 hours): > 64 µg/mL | MFC ([14]; Fusarium solani, 35° C., 48 hours on drug-free agar): > 64 µg/mL | MFC ([15]; MYA4438, 35° C., 48 hours on drug-free agar): > 64 µg/mL | MIC ([15]; MYA4438, 48 h, 35° C., 48 hours): ~0.5 µg/mL (≈ 1.13 µM) | MIC [16]: ≥ 64 mg/1 | capsule size [17]: capsule size significantly reduced | melanin production [18]: melanin production in C. neoformans reduced
